Reference: patent publication US8796289B2 (AbbVie Inc., priority 2011, dated 2014)

target: GST-tagged-Wee1 kinase (Homo sapiens, UniProt P30291); test: Wee1 time-resolved fluorescence equilibrium binding assay (displacement of Oregon Green-labeled ATP-competitive kinase probe); conditions: not given
Experimental: Wee1 kinase was assayed using a time-resolved fluorescence equilibrium binding assay monitoring displacement of a rapidly reversible Oregon Green-labeled ATP-competitive kinase probe (N-(2-(2-(2-(4-(4-(5-chloro-4-(2-(1-hydroxycyclobutyl)thiazol-5-yl)-1H-pyrrolo[2,3-b]pyridin-2-yl)phenyl)piperazin-1-yl)ethoxy)ethoxy)ethyl)-2′,7′-difluoro-3′,6′-dihydroxy-3-oxo-3H-spiro[isobenzofuran-1,9′-xanthene]-5-carboxamide) by competitive Wee1 inhibitors.

Sequence of GST-tagged-Wee1 kinase (P30291 whole entry): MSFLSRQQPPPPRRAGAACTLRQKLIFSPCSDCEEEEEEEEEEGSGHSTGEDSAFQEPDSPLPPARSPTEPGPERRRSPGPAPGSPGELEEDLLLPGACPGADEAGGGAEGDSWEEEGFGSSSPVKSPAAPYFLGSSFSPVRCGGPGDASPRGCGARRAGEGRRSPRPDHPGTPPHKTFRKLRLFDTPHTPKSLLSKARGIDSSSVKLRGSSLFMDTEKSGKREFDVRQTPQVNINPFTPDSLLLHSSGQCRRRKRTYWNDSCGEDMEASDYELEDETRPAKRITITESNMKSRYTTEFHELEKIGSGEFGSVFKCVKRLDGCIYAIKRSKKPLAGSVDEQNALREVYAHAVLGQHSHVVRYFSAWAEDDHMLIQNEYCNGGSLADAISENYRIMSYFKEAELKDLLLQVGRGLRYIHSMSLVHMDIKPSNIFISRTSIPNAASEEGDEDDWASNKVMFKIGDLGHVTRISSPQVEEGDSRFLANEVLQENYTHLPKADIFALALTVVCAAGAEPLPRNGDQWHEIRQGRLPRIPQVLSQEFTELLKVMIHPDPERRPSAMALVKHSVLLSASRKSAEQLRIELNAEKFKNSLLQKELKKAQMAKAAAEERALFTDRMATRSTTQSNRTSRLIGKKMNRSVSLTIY

Ki [nM] | Compound
1900 | Cc1nn(C)c(=O)c2cnc(Nc3ccc(N4CCN(C)CC4)cc3)nc12 [Example 1, 6,8-dimethyl-2-{[4-(4-methylpiperazin-1-yl)phenyl]amino}pyrimido[4,5-d]pyridazin-5(6H)-one]
140 | C=CCn1nc(C)c2nc(Nc3ccc(N4CCN(C)CC4)cc3)ncc2c1=O [Example 2, 6-allyl-8-methyl-2-{[4-(4-methylpiperazin-1-yl)phenyl]amino}pyrimido[4,5-d]pyridazin-5(6H)-one]
180 | CN1CCN(c2ccc(Nc3ncc4c(=O)n(C)nc(-c5ccccc5)c4n3)cc2)CC1 [Example 3, 6-methyl-2-{[4-(4-methylpiperazin-1-yl)phenyl]amino}-8-phenylpyrimido[4,5-d]pyridazin-5(6H)-one]
25 | CN1CCN(c2ccc(Nc3ncc4c(=O)[nH]nc(-c5ccccc5)c4n3)cc2)CC1 [Example 4, 2-{[4-(4-methylpiperazin-1-yl)phenyl]amino}-8-phenylpyrimido[4,5-d]pyridazin-5(6H)-one]
6 | C=CCn1nc(-c2ccccc2)c2nc(Nc3ccc(N4CCN(C)CC4)cc3)ncc2c1=O [Example 5, 6-allyl-2-{[4-(4-methylpiperazin-1-yl)phenyl]amino}-8-phenylpyrimido[4,5-d]pyridazin-5(6H)-one]
680 | CN1CCN(c2ccc(Nc3ncc4c(=O)n(C)nc(CCc5ccccc5)c4n3)cc2)CC1 [Example 6, 6-methyl-2-{[4-(4-methylpiperazin-1-yl)phenyl]amino}-8-(2-phenylethyl)pyrimido[4,5-d]pyridazin-5(6H)-one]
250 | C=CCn1nc(CCc2ccccc2)c2nc(Nc3ccc(N4CCN(C)CC4)cc3)ncc2c1=O [Example 7, 6-allyl-2-{[4-(4-methylpiperazin-1-yl)phenyl]amino}-8-(2-phenylethyl)pyrimido[4,5-d]pyridazin-5(6H)-one]
370 | CN1CCN(c2ccc(Nc3ncc4c(=O)n(CCC#N)nc(CCc5ccccc5)c4n3)cc2)CC1 [Example 8, 3-[2-{[4-(4-methylpiperazin-1-yl)phenyl]amino}-5-oxo-8-(2-phenylethyl)pyrimido[4,5-d]pyridazin-6(5H)-yl]propanenitrile]
61 | CN1CCN(c2ccc(Nc3ncc4c(=O)n(-c5ccccc5)nc(CCc5ccccc5)c4n3)cc2)CC1 [Example 9, 2-{[4-(4-methylpiperazin-1-yl)phenyl]amino}-6-phenyl-8-(2-phenylethyl)pyrimido[4,5-d]pyridazin-5(6H)-one]
> 3140 | CN1CCN(c2ccc(Nc3ncc4c(=O)n(CC(F)(F)F)nc(CCc5ccccc5)c4n3)cc2)CC1 [Example 10, 2-{[4-(4-methylpiperazin-1-yl)phenyl]amino}-8-(2-phenylethyl)-6-(2,2,2-trifluoroethyl)pyrimido[4,5-d]pyridazin-5(6H)-one]
730 | CCCc1nn(C)c(=O)c2cnc(Nc3ccc(N4CCN(C)CC4)cc3)nc12 [Example 11, 6-methyl-2-{[4-(4-methylpiperazin-1-yl)phenyl]amino}-8-propylpyrimido[4,5-d]pyridazin-5(6H)-one]
6 | Cc1ccccc1-n1nc(CCc2ccccc2)c2nc(Nc3ccc(N4CCN(C)CC4)cc3)ncc2c1=O [Example 12, 6-(2-methylphenyl)-2-{[4-(4-methylpiperazin-1-yl)phenyl]amino}-8-(2-phenylethyl)pyrimido[4,5-d]pyridazin-5(6H)-one]
620 | CN1CCN(c2ccc(Nc3ncc4c(=O)n(C)nc(C5CCCC5)c4n3)cc2)CC1 [Example 13, 8-cyclopentyl-6-methyl-2-{[4-(4-methylpiperazin-1-yl)phenyl]amino}pyrimido[4,5-d]pyridazin-5(6H)-one]
1100 | CN1CCN(c2ccc(Nc3ncc4c(=O)[nH]nc(C5CCCC5)c4n3)cc2)CC1 [Example 14, 8-cyclopentyl-2-{[4-(4-methylpiperazin-1-yl)phenyl]amino}pyrimido[4,5-d]pyridazin-5(6H)-one]
250 | C=CCn1nc(C2CCCC2)c2nc(Nc3ccc(N4CCN(C)CC4)cc3)ncc2c1=O [Example 15, 6-allyl-8-cyclopentyl-2-{[4-(4-methylpiperazin-1-yl)phenyl]amino}pyrimido[4,5-d]pyridazin-5(6H)-one]
130 | C=CCn1nc(CCC)c2nc(Nc3ccc(N4CCN(C)CC4)cc3)ncc2c1=O [Example 16, 6-allyl-2-{[4-(4-methylpiperazin-1-yl)phenyl]amino}-8-propylpyrimido[4,5-d]pyridazin-5(6H)-one]
36 | CCCc1nn(-c2ccccc2)c(=O)c2cnc(Nc3ccc(N4CCN(C)CC4)cc3)nc12 [Example 17, 2-{[4-(4-methylpiperazin-1-yl)phenyl]amino}-6-phenyl-8-propylpyrimido[4,5-d]pyridazin-5(6H)-one]
4 | CCCc1nn(-c2ccccc2C)c(=O)c2cnc(Nc3ccc(N4CCN(C)CC4)cc3)nc12 [Example 18, 6-(2-methylphenyl)-2-{[4-(4-methylpiperazin-1-yl)phenyl]amino}-8-propylpyrimido[4,5-d]pyridazin-5(6H)-one]
73 | CN1CCN(c2ccc(Nc3ncc4c(=O)n(-c5ccccc5)nc(Cc5ccccc5)c4n3)cc2)CC1 [Example 19, 8-benzyl-2-{[4-(4-methylpiperazin-1-yl)phenyl]amino}-6-phenylpyrimido[4,5-d]pyridazin-5(6H)-one]
19 | Cc1ccccc1-n1nc(Cc2ccccc2)c2nc(Nc3ccc(N4CCN(C)CC4)cc3)ncc2c1=O [Example 20, 8-benzyl-6-(2-methylphenyl)-2-{[4-(4-methylpiperazin-1-yl)phenyl]amino}pyrimido[4,5-d]pyridazin-5(6H)-one]
350 | CCCc1nn(CCC#N)c(=O)c2cnc(Nc3ccc(N4CCN(C)CC4)cc3)nc12 [Example 21, 3-[2-{[4-(4-methylpiperazin-1-yl)phenyl]amino}-5-oxo-8-propylpyrimido[4,5-d]pyridazin-6(5H)-yl]propanenitrile]
700 | C=CCn1nc(Cc2ccccc2)c2nc(Nc3ccc(N4CCN(C)CC4)cc3)ncc2c1=O [Example 22]
370 | CCCc1nn(CC(F)(F)F)c(=O)c2cnc(Nc3ccc(N4CCN(C)CC4)cc3)nc12 [Example 23, 2-{[4-(4-methylpiperazin-1-yl)phenyl]amino}-8-propyl-6-(2,2,2-trifluoroethyl)pyrimido[4,5-d]pyridazin-5(6H)-one]
2 | CN1CCN(c2ccc(Nc3ncc4c(=O)n(-c5ccccc5Cl)nc(CCc5ccccc5)c4n3)cc2)CC1 [Example 24, 6-(2-chlorophenyl)-2-{[4-(4-methylpiperazin-1-yl)phenyl]amino}-8-(2-phenylethyl)pyrimido[4,5-d]pyridazin-5(6H)-one]
1 | CCCc1nn(-c2ccccc2Cl)c(=O)c2cnc(Nc3ccc(N4CCN(C)CC4)cc3)nc12 [Example 25, 6-(2-chlorophenyl)-2-{[4-(4-methylpiperazin-1-yl)phenyl]amino}-8-propylpyrimido[4,5-d]pyridazin-5(6H)-one]
12 | CN1CCN(c2ccc(Nc3ncc4c(=O)n(-c5ccccc5Cl)nc(Cc5ccccc5)c4n3)cc2)CC1 [Example 26, 8-benzyl-6-(2-chlorophenyl)-2-{[4-(4-methylpiperazin-1-yl)phenyl]amino}pyrimido[4,5-d]pyridazin-5(6H)-one]
2 | CN1CCN(c2ccc(Nc3ncc4c(=O)n(-c5ccccc5)nc(-c5ccccc5)c4n3)cc2)CC1 [Example 27, 2-{[4-(4-methylpiperazin-1-yl)phenyl]amino}-6,8-diphenylpyrimido[4,5-d]pyridazin-5(6H)-one]
0.8 | Cc1ccccc1-n1nc(-c2ccccc2)c2nc(Nc3ccc(N4CCN(C)CC4)cc3)ncc2c1=O [Example 28, 6-(2-methylphenyl)-2-{[4-(4-methylpiperazin-1-yl)phenyl]amino}-8-phenylpyrimido[4,5-d]pyridazin-5(6H)-one]
< 1 | CN1CCN(c2ccc(Nc3ncc4c(=O)n(-c5ccccc5Cl)nc(-c5ccccc5)c4n3)cc2)CC1 [Example 29, 6-(2-chlorophenyl)-2-{[4-(4-methylpiperazin-1-yl)phenyl]amino}-8-phenylpyrimido[4,5-d]pyridazin-5(6H)-one]

same assay, conditions: read-out: Wee-1 inhibition Ki

Compound | Ki [nM]
3-{[6-(2,6-dichlorophenyl)-8-methyl-5-oxo-5,6-dihydropyrimido[4,5-d]pyridazin-2-yl]amino}benzoic acid [Example 521] | 97
6-(2,6-dichlorocyclohexa-1,5-dien-1-yl)-2-[(3-{[2-(dimethylamino)ethyl]amino}phenyl)amino]-8-methylpyrimido[4,5-d]pyridazin-5(6H)-one [Example 514] | 0.41
6-(2,6-dichlorophenyl)-8-(3-furyl)-2-{[4-(4-methylpiperazin-1-yl)phenyl]amino}pyrimido[4,5-d]pyridazin-5(6H)-one [Example 95] | 0.1
6-(2-chlorophenyl)-2-{[4-(4-isopropylpiperazin-1-yl)-3-methylphenyl]amino}-8-(2-thienyl)pyrimido[4,5-d]pyridazin-5(6H)-one [Example 166] | 0.8
6-(2-chlorophenyl)-2-{[4-(4-methylpiperazin-1-yl)phenyl]amino}-8-(1-methyl-1H-pyrazol-4-yl)pyrimido[4,5-d]pyridazin-5(6H)-one [Example 86] | 1
6-(2-chlorophenyl)-8-(2-furyl)-2-{[4-(4-methylpiperazin-1-yl)phenyl]amino}pyrimido[4,5-d]pyridazin-5(6H)-one [Example 33] | 0.3
6-(2-chlorophenyl)-8-(6-chloropyridin-2-yl)-2-{[4-(4-methylpiperazin-1-yl)phenyl]amino}pyrimido[4,5-d]pyridazin-5(6H)-one [Example 77] | 0.7
8-(6-chloropyridin-2-yl)-6-(2,6-dichlorophenyl)-2-{[4-(4-methylpiperazin-1-yl)phenyl]amino}pyrimido[4,5-d]pyridazin-5(6H)-one [Example 75] | 0.08
